Key:
Assay in all cases: scanMAX KINOMEscan (Eurofins)
Type in all cases: binding
PIK4CB = PIK4CB (Homo sapiens, UniProt Q9UBF8); settings: 1000 nM, read-out: Percent Control
Description: (§1) Supplement cb5c00097_si_002.xlsx, sheet "Table S6 (Eurofins Selectivity)" | column: Percent Control

PRKG2 = PRKG2 (Homo sapiens, UniProt Q13237); settings: 1000 nM, read-out: Percent Control
Description: as §1

PKAC-alpha = PKAC-alpha (Homo sapiens, UniProt P17612); settings: compound concentration 100 nM; Entrez PRKACA; read-out: Percent Control
Description: as §1

HCK = HCK (Homo sapiens, UniProt P08631); settings: 1000 nM, read-out: Percent Control
Description: as §1

LOK = LOK (Homo sapiens, UniProt O94804); settings: 1000 nM, read-out: Percent Control
Description: as §1

MLK3 = MLK3 (Homo sapiens, UniProt Q16584); settings: 1000 nM, read-out: Percent Control
Description: as §1

YSK4 = YSK4 (Homo sapiens, UniProt Q56UN5); settings: compound concentration 100 nM; Entrez MAP3K19; read-out: Percent Control
Description: as §1

DAPK1 = DAPK1 (Homo sapiens, UniProt P53355); settings: 1000 nM, read-out: Percent Control
Description: as §1

IKK-alpha = IKK-alpha (Homo sapiens, UniProt O15111); settings: read-out: Percent Control
Description: as §1

TLK1 = TLK1 (Homo sapiens, UniProt Q9UKI8); settings: compound concentration 100 nM; Entrez TLK1; read-out: Percent Control
Description: as §1

PRKR = PRKR (Homo sapiens, UniProt P19525); settings: compound concentration 100 nM; Entrez EIF2AK2; read-out: Percent Control
Description: as §1

NDR1 = NDR1 (Homo sapiens, UniProt Q15208); settings: 1000 nM, read-out: Percent Control
Description: as §1

MAK = MAK (Homo sapiens, UniProt P20794); settings: compound concentration 100 nM; Entrez MAK; read-out: Percent Control
Description: as §1

MYLK = MYLK (Homo sapiens, UniProt Q15746); settings: 1000 nM, read-out: Percent Control
Description: as §1

DCAMKL3 = DCAMKL3 (Homo sapiens, UniProt Q9C098); settings: read-out: Percent Control
Description: as §1

EPHB3 = EPHB3 (Homo sapiens, UniProt P54753); settings: read-out: Percent Control
Description: as §1

NEK5 = NEK5 (Homo sapiens, UniProt Q6P3R8); settings: 1000 nM, read-out: Percent Control
Description: as §1

AKT1 = AKT1 (Homo sapiens, UniProt P31749); settings: 1000 nM, read-out: Percent Control
Description: as §1

PRKCQ = PRKCQ (Homo sapiens, UniProt Q04759); settings: 1000 nM, read-out: Percent Control
Description: as §1

[1] = target: JAK3(JH1domain-catalytic) (Homo sapiens, UniProt P52333); settings: 1000 nM, read-out: Percent Control
Description: as §1

HIPK1 = HIPK1 (Homo sapiens, UniProt Q86Z02); settings: 1000 nM, read-out: Percent Control
Description: as §1

FYN = FYN (Homo sapiens, UniProt P06241); settings: 1000 nM, read-out: Percent Control
Description: as §1

EGFR = EGFR (Homo sapiens, UniProt P00533); settings: read-out: Percent Control
Description: as §1

ANKK1 = ANKK1 (Homo sapiens, UniProt Q8NFD2); settings: 1000 nM, read-out: Percent Control
Description: as §1

PHKG2 = PHKG2 (Homo sapiens, UniProt P15735); settings: 1000 nM, read-out: Percent Control
Description: as §1

TNK1 = TNK1 (Homo sapiens, UniProt Q13470); settings: 1000 nM, read-out: Percent Control
Description: as §1

TAOK2 = TAOK2 (Homo sapiens, UniProt Q9UL54); settings: 1000 nM, read-out: Percent Control
Description: as §1

JNK1 = JNK1 (Homo sapiens, UniProt P45983); settings: compound concentration 100 nM; Entrez MAPK8; read-out: Percent Control
Description: as §1

CDKL3 = CDKL3 (Homo sapiens, UniProt Q8IVW4); settings: read-out: Percent Control
Description: as §1

CSNK1D = CSNK1D (Homo sapiens, UniProt P48730); settings: 1000 nM, read-out: Percent Control
Description: as §1

CSNK1A1 = CSNK1A1 (Homo sapiens, UniProt P48729); settings: 1000 nM, read-out: Percent Control
Description: as §1

JNK2 = JNK2 (Homo sapiens, UniProt P45984); settings: 1000 nM, read-out: Percent Control
Description: as §1

TNIK = TNIK (Homo sapiens, UniProt Q9UKE5); settings: 1000 nM, read-out: Percent Control
Description: as §1

TEC = TEC (Homo sapiens, UniProt P42680); settings: compound concentration 100 nM; Entrez TEC; read-out: Percent Control
Description: as §1

ULK3 = ULK3 (Homo sapiens, UniProt Q6PHR2); settings: 1000 nM, read-out: Percent Control
Description: as §1

PCTK1 = PCTK1 (Homo sapiens, UniProt Q00536); settings: compound concentration 100 nM; Entrez CDK16; read-out: Percent Control
Description: as §1

YES = YES (Homo sapiens, UniProt P07947); settings: 1000 nM, read-out: Percent Control
Description: as §1

CDKL3, sequence (Q8IVW4 whole entry): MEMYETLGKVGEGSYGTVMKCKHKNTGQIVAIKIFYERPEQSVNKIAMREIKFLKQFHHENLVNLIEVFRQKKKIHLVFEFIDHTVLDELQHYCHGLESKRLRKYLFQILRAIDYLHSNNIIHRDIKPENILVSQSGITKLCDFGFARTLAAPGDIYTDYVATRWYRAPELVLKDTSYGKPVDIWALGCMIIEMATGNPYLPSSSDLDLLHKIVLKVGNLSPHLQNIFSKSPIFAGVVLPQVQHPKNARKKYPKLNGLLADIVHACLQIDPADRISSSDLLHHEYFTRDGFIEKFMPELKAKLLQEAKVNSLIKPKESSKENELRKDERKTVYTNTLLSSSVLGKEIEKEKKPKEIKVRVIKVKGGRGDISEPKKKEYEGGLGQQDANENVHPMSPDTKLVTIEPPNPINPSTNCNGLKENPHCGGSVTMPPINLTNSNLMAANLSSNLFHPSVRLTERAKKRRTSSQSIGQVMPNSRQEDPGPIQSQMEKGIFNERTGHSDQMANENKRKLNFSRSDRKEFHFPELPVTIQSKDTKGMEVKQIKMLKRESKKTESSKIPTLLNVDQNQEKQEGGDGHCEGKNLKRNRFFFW
EPHB3, sequence (P54753 34-998): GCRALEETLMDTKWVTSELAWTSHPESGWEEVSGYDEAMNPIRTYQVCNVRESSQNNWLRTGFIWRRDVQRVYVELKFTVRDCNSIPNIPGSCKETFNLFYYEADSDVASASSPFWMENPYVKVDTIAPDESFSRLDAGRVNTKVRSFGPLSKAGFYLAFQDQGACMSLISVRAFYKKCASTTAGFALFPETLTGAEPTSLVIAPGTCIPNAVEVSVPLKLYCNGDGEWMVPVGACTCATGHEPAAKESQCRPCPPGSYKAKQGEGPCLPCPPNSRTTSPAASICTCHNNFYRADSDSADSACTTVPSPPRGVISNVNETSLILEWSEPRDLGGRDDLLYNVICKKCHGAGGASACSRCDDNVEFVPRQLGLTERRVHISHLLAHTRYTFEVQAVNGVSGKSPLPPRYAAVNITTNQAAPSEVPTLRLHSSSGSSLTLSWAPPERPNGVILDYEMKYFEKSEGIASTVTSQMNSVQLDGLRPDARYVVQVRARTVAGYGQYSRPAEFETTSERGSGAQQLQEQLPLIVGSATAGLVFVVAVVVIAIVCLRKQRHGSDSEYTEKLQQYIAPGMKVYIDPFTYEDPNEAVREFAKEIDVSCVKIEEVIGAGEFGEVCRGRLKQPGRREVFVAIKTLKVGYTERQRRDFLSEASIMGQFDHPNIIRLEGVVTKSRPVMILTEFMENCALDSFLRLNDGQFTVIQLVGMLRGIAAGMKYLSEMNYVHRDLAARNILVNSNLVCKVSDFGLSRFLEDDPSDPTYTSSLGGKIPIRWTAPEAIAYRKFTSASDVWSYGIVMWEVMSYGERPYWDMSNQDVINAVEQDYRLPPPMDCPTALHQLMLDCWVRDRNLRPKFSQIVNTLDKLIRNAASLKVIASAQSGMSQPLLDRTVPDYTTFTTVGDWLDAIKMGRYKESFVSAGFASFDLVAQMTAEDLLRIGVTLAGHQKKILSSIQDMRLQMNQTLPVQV
DCAMKL3, sequence (Q9C098 whole entry): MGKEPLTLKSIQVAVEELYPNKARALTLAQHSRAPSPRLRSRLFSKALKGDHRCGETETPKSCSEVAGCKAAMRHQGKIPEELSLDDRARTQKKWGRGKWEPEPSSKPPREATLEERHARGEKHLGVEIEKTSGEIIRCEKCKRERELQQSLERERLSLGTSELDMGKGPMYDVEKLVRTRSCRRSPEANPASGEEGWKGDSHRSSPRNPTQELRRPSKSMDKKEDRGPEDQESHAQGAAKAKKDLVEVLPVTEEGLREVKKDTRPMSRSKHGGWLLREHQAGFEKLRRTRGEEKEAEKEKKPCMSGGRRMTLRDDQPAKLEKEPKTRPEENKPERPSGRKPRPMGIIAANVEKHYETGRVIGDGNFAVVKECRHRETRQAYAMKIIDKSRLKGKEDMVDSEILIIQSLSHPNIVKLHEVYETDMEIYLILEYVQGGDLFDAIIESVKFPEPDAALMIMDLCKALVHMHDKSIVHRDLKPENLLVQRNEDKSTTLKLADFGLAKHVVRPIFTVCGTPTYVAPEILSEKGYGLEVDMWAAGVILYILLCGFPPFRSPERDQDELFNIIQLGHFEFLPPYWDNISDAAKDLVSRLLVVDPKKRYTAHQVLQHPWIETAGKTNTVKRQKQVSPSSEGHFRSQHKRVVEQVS
EGFR, sequence (P00533 25-1210): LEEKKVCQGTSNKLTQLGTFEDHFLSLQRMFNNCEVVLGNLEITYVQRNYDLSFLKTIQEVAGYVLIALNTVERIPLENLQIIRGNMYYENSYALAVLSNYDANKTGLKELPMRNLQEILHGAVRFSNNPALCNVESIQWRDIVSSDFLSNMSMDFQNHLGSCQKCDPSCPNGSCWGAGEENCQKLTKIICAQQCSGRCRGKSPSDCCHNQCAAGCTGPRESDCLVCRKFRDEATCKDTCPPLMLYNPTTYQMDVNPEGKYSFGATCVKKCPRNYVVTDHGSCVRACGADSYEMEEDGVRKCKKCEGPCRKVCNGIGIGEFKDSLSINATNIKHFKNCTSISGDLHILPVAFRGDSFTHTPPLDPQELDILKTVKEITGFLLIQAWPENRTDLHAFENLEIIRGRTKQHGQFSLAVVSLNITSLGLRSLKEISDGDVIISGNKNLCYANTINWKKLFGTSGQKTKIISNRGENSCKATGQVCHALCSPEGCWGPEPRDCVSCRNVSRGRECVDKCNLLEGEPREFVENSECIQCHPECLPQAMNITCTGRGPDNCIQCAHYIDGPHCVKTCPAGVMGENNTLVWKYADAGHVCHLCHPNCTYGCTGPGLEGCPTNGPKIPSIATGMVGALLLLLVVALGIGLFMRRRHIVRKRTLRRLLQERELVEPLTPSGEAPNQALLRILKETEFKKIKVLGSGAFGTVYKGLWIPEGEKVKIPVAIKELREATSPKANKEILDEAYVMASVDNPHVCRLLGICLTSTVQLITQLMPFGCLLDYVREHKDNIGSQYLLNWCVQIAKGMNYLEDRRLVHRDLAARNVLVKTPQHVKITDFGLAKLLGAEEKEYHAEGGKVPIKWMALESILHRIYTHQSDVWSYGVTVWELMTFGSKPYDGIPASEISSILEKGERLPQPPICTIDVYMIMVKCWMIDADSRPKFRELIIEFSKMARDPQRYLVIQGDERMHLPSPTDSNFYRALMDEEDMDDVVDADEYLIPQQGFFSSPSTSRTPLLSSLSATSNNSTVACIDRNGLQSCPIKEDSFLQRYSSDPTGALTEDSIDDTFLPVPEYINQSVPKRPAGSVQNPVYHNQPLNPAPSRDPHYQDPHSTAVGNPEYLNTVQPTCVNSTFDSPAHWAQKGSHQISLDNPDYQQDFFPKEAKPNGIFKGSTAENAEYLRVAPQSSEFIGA
IKK-alpha, sequence (O15111 whole entry): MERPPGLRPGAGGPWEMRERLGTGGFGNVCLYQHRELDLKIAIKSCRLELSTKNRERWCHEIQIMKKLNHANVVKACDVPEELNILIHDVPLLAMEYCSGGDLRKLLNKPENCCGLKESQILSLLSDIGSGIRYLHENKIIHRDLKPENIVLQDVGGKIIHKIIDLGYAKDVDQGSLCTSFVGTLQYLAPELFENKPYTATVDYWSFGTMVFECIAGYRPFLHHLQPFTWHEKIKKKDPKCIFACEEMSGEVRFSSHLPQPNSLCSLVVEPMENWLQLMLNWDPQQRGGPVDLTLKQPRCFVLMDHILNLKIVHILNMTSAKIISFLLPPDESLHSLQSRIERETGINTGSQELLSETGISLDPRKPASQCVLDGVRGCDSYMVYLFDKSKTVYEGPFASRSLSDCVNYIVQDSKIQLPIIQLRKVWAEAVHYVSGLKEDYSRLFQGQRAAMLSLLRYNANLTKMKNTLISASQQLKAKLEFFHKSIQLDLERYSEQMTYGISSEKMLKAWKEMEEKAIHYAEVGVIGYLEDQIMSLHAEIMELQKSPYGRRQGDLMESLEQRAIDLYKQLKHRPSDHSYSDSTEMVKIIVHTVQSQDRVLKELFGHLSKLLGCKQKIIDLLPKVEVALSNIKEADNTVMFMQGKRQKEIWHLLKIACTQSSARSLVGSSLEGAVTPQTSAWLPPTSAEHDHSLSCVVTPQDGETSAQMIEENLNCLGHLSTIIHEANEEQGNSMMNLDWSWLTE
JNK2, sequence (P45984 whole entry): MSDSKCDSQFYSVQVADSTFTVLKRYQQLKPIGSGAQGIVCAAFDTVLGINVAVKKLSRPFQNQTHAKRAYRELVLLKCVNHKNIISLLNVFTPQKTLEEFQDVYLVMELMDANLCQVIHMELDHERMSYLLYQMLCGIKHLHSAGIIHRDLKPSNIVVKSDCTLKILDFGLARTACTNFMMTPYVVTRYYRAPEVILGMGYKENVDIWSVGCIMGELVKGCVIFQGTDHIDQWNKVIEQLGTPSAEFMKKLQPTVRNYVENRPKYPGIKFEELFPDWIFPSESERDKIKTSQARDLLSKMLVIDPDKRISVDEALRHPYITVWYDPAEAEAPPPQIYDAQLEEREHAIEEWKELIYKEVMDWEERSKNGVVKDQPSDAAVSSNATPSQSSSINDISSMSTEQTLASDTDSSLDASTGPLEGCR
PHKG2, sequence (P15735 whole entry): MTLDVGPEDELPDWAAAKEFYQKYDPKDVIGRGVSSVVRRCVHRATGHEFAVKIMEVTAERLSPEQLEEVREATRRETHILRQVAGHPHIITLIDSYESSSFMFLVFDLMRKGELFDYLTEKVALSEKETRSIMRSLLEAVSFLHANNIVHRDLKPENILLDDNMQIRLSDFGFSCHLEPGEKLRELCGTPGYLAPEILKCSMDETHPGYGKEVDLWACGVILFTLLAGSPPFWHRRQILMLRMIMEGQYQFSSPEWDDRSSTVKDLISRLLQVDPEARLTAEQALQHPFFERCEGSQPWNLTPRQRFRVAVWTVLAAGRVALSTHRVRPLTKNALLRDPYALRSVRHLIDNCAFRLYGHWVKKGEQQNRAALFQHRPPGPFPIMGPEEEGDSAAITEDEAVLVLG

## CN1C(=O)[C@@H](N2CCc3c(nn(Cc4ccccc4)c3C(N)=O)C2=O)COc2cc(Cl)ccc21 [Compound 10, (S)-2-benzyl-6-(8-chloro-5-methyl-4-oxo-2,3,4,5-tetrahydrobenzo[b][1,4]oxazepin-3-yl)-7-oxo-4,5,6,7-tetrahydro-2H-pyrazolo[3,4-c]pyridine-3-carboxamide]
PIK4CB
  remaining binding at 1 µM: 75%
PRKG2
  remaining binding at 1 µM: 90%
PKAC-alpha
  remaining binding at 0.1 µM: 90%
HCK
  remaining binding at 1 µM: 92%
LOK
  remaining binding at 1 µM: 97%
MLK3
  remaining binding at 1 µM: 92%
YSK4
  remaining binding at 0.1 µM: 88%
DAPK1
  remaining binding at 1 µM: 96%
IKK-alpha; 1000 nM
  remaining binding at 1 µM: 100%
IKK-alpha; compound concentration 100 nM, Entrez CHUK
  remaining binding at 0.1 µM: 93%
TLK1
  remaining binding at 0.1 µM: 88%
PRKR
  remaining binding at 0.1 µM: 71%
NDR1
  remaining binding at 1 µM: 97%
MAK
  remaining binding at 0.1 µM: 94%
MYLK
  remaining binding at 1 µM: 86%
DCAMKL3; 1000 nM
  remaining binding at 1 µM: 100%
DCAMKL3; compound concentration 100 nM, Entrez DCLK3
  remaining binding at 0.1 µM: 75%
EPHB3; 1000 nM
  remaining binding at 1 µM: 100%
EPHB3; compound concentration 100 nM, Entrez EPHB3
  remaining binding at 0.1 µM: 71%
NEK5
  remaining binding at 1 µM: 96%
AKT1
  remaining binding at 1 µM: 91%
PRKCQ
  remaining binding at 1 µM: 91%
[1]
  remaining binding at 1 µM: 85%
HIPK1
  remaining binding at 1 µM: 93%
FYN
  remaining binding at 1 µM: 77%
EGFR; 1000 nM
  remaining binding at 1 µM: 100%
EGFR; compound concentration 100 nM, Entrez EGFR
  remaining binding at 0.1 µM: 96%
ANKK1
  remaining binding at 1 µM: 80%
PHKG2
  remaining binding at 1 µM: 78%
TNK1
  remaining binding at 1 µM: 77%
TAOK2
  remaining binding at 1 µM: 90%
JNK1
  remaining binding at 0.1 µM: 79%
CDKL3; 1000 nM
  remaining binding at 1 µM: 100%
CDKL3; compound concentration 100 nM, Entrez CDKL3
  remaining binding at 0.1 µM: 91%
CSNK1D
  remaining binding at 1 µM: 87%
CSNK1A1
  remaining binding at 1 µM: 83%
JNK2
  remaining binding at 1 µM: 89%
TNIK
  remaining binding at 1 µM: 96%
TEC
  remaining binding at 0.1 µM: 86%
ULK3
  remaining binding at 1 µM: 93%
PCTK1
  remaining binding at 0.1 µM: 100%
YES
  remaining binding at 1 µM: 90%
